Experimental data taken from patent publication US9828357B2, “Cyclic compounds” (Takeda Pharmaceutical Company Limited, priority 2015, dated 2017).

Biological target: T1, TLR4 (Mus musculus, UniProt Q9QUK6)
T1 construct: endogenous in cells; host or cells: RAW264.7 (murine macrophage cell line)
T1 sequence (Q9QUK6 26-835): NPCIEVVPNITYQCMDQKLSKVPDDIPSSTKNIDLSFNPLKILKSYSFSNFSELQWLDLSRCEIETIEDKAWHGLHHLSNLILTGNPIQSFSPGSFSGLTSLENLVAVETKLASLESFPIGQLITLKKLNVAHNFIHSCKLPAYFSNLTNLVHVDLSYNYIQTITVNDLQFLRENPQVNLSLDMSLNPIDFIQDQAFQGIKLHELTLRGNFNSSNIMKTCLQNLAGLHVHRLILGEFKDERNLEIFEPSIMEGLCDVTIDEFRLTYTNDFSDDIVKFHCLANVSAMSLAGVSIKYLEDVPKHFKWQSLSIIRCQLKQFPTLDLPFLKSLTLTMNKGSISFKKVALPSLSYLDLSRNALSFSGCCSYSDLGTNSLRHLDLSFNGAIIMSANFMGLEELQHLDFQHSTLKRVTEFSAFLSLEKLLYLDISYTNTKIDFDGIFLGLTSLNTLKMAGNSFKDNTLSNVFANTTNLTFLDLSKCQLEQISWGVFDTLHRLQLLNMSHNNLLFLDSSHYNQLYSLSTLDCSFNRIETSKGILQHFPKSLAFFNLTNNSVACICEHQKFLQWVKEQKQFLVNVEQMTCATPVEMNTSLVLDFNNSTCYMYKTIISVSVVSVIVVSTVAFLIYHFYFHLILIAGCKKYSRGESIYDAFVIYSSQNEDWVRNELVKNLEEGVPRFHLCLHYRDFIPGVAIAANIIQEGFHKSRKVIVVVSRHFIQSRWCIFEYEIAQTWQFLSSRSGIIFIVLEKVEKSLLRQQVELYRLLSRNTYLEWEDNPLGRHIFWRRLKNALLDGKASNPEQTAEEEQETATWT
T1 sequence (Q9JHF9 19-160 partner): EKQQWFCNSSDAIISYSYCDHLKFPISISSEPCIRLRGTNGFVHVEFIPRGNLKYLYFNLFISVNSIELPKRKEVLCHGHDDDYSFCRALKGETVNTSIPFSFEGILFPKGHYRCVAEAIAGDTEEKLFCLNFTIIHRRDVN
Assay: Inhibitory effect with respect to NO production (LPS/interferon γ-stimulated RAW264.7)
Format: cell-based, murine
Settings: RAW264.7 cells, LPS 1.25 ng/mL and mouse interferon γ 0.2 ng/mL, nitrite ion in culture supernatant
Procedure: The inhibitory effect on TLR4 was determined using the inhibition rate due to the test compound with respect to NO production as a result of addition of lipopolysaccharide (LPS) using murine macrophage cell line RAW264.7. The cells were adjusted to 2×10^6 cells/mL using RPM1-1640 culture medium (phenol red free) supplemented with 10% inactivated bovine fetal serum, and were plated on 384 well plate so as to contain 6×10^4 cells/30 μL per well. Thereafter the cells were cultured at 37° C. overnight under 5% CO2/95% air. The test compound dissolved in DMSO was diluted 200 times using RPM1-1640 culture medium and adjusted so as to form a compound concentration of 500 nM. The prepared test compound 10 μL (final concentration 100 nM) was added to the cells, and LPS (Sigma) and mouse interferon γ (Wako Pure Chemicals) were added in amounts of 10 μL so as to form final concentrations of 1.25 ng/mL and 0.2 ng/mL respectively. The cells were further cultured overnight, and then the nitrite ion (stable NO metabolite) concentration in the culture supernatant was measured as an index of NO production. The nitrite ion concentration was assayed by adding 10 μL of 20 μg/mL 2,3-diamino naphthalene (DAN) dissolved in 0.2N HCl to 20 μL culture supernatant, incubating at room temperature for ten minutes, and then adding 10 μL of 0.5N NaOH, and measuring the fluorescent value at 460 nm (excitation wavelength 355 nm) using an EnVision plate reader (Perkin Elmer). The NO production inhibition rate (%) was calculated using the value without the addition of stimulating agent as control of 100% inhibition, and the value without the addition of the compound as control of 0% inhibition.

| SMILES | NO production inhibitory effect at 100 nM (% inhibition) | NO production inhibitory effect at 100 nM (% inhibition) (0.1 µM) |
| --- | --- | --- |
| CCOC(=O)C1=CCCCC1S(=O)(=O)C1CCc2c(Cl)cccc21 (stereo not drawn) [Compound 1, Ethyl 6-((4-chloro-2,3-dihydro-1H-inden-1-yl)sulfonyl)cyclohex-1-ene-1-carboxylate] | 96 % inhibition |  |
| CCOC(=O)C1=CC2(CCC1S(=O)(=O)C1CCc3cc(F)cc(Br)c31)O[C@@H](CO)[C@H](CO)O2 (stereo partly drawn) [Compound 11, Ethyl (2S, 3S)-8-((7-bromo-5-fluoro-2,3-dihydro-1H-inden-1-yl)sulfonyl)-2,3-bis(hydroxymethyl)-1,4-dioxaspiro[4.5]dec-6-ene-7-carboxylate] | 110 % inhibition |  |
| CCOC(=O)C1=CC(O)CCC1S(=O)(=O)C1CCc2cccc(Cl)c21 (racemic) [Compound 5, Ethyl 6-((7-chloro-2,3-dihydro-1H-inden-1-yl)sulfonyl)-3-hydroxycyclohex-1-ene-1-carboxylate] |  | 100 % inhibition |
| CCOC(=O)C1=CC2(CCC1S(=O)(=O)C1CCc3c(F)ccc(Cl)c31)O[C@@H](CO)[C@H](CO)O2 (stereo partly drawn) [Compound 9, Ethyl (2S, 3S)-8-((7-chloro-4-fluoro-2,3-dihydro-1H-inden-1-yl)sulfonyl)-2,3-bis(hydroxymethyl)-1,4-dioxaspiro[4.5]dec-6-ene-7-carboxylate] | 110 % inhibition |  |
| CCOC(=O)C1=CC2(CC[C@H]1S(=O)(=O)[C@H]1CCc3cc(F)cc(Cl)c31)O[C@@H](CO)[C@H](CO)O2 [Compound 15, Ethyl (2S,3S,8R)-8-(((1S)-7-chloro-5-fluoro-2,3-dihydro-1H-inden-1-yl)sulfonyl)-2,3-bis(hydroxymethyl)-1,4-dioxaspiro[4.5]dec-6-ene-7-carboxylate] | 106 % inhibition |  |
| CCOC(=O)C1=CCOCC1S(=O)(=O)C1CCc2cccc(Cl)c21 (single isomer, unassigned) [Compound 20] | 104 % inhibition |  |
| CCOC(=O)C1=CC2(CCC1S(=O)(=O)C1CCc3ccc(F)c(Cl)c31)O[C@@H](CO)[C@H](CO)O2 (stereo partly drawn) [Compound 10, Ethyl (2S, 3S)-8-((7-chloro-6-fluoro-2,3-dihydro-1H-inden-1-yl)sulfonyl)-2,3-bis(hydroxymethyl)-1,3-dioxaspiro[4.5]dec-6-ene-7-carboxylate] | 100 % inhibition |  |
| CCOC(=O)C1=CC2(CCC1S(=O)(=O)C1CCc3cccc(C)c31)O[C@@H](CO)[C@H](CO)O2 (stereo partly drawn) [Compound 13, Ethyl (2S, 3S)-2,3-bis(hydroxymethyl)-8-((7-methyl-2,3-dihydro-1H-inden-1-yl)sulfonyl)-1,4-dioxaspiro[4.5]dec-6-ene-7-carboxylate] | 100 % inhibition |  |
| CCOC(=O)C1=CC2(CCC1S(=O)(=O)C1CCc3c(Cl)cccc31)O[C@@H](CO)[C@H](CO)O2 (stereo partly drawn) [Compound 3, Ethyl (2S,3S)-8-((4-chloro-2,3-dihydro-1H-inden-1-yl)sulfonyl)-2,3-bis(hydroxymethyl)-1,4-dioxaspiro[4.5]dec-6-ene-7-carboxylate] | 110 % inhibition |  |
| CCOC(=O)C1=CC2(CC[C@H]1S(=O)(=O)[C@H]1CCCc3cccc(Cl)c31)O[C@@H](CO)[C@H](CO)O2 [Compound 19, Ethyl (2S,3S,8R)-8-(((1S)-8-chloro-1,2,3,4-tetrahydronaphthalen-1-yl)sulfonyl)-2,3-bis(hydroxymethyl)-1,4-dioxaspiro[4.5]dec-6-ene-7-carboxylate] | 107 % inhibition |  |
| CCOC(=O)C1=CCCC[C@H]1S(=O)(=O)[C@H]1CCc2cccc(Cl)c21 [Compound 18, Ethyl (6R)-6-(((1S)-7-chloro-2,3-dihydro-1H-inden-1-yl)sulfonyl)cyclohex-1-ene-1-carboxylate] | 104 % inhibition |  |
| CCOC(=O)C1=CC2(CCC1S(=O)(=O)C1CCCc3cccc(Cl)c31)O[C@H](CO)[C@@H](CO)O2 (single isomer, unassigned) [Compound 16] |  | 108 % inhibition |
